In US20260078114A1, “COMPOUND USED AS INHIBITOR OF CDK4 KINASE AND USE THEREOF” (TYK MEDICINES, INC., priority 2022, published 2026):

Tests used:
[1] = target: CDK6/CyclinD3 (Homo sapiens, UniProt Q00534); assay: Kinase activity test (mobility shift assay, EZ Reader), CDK6; type: biochemical; conditions: CDK6/CyclinD3 5.00 nM, ATP 350 μM, FL-Peptide34
[2] = system: Human breast cancer cell MCF-7; assay: Cellular antiproliferative assay (MTT, 5 days), MCF-7; type: cell-based; conditions: Homo sapiens, MCF7, 120 h, MCF-7 cells, 5 days incubation
Protocol: (§1) Human breast cancer cell MCF-7, ovarian cancer cell A2780, human mantle cell lymphoma cell JEKO-1. DMEM medium (Bio-Channel), DMSO (dimethyl sulfoxide), MTT (thiazolyl blue), 0.25% EDTA-Tripsin (tryptic digest), 1×PBS (phosphate buffer, PH7.2), 96-well plate (Corning), fetal bovine serum (FBS), 10,000 U/mL penicillin-G/streptomycin, high-speed cryo-centrifuge (EPPENDORF 5810R), enzyme-linked immunoassay (Tecan Spark).
(§2) • A) Tumor cells were cultured in DMEM (high sugar with 10% FBS and 100 U/mL penicillin-G/streptomycin) at 37° C., 5% CO2 and saturated humidity until 80-90% dense. • B) Removed the culture medium from 10 cm Petri dishes; • C) Rinsed the cells once with 10 ml 1×PBS; • D) Added 4 ml 0.25% EDTA-Tripsin into 37° C., 5% CO2 incubator for trypsin digestion for 5 minutes, transferred to 15 ml centrifuge tube, centrifuged at 200 g for 5 minutes, discarded the supernatant to get cell precipitate; • E) Resuspended with 4 ml DMEM medium, counted and adjust to 50,000 cells/ml. • F) Added cell suspension to 96-well plate with 100 μL per well volume and incubated overnight at 37° C., 5% CO2 incubator.
(§3) • A) Preparation of gradient dilution solution of the tested compound: the test compound was configured into 1 mM reservoir solution.
(§4) • A) Taking the cell culture plate and adding 10 μL of 5 mg/ml MTT in the biosafety cabinet; • B) Putting the cell culture plate back into the incubator and continued incubation for 3 hours; • C) Taking the cell culture plate and removing the culture medium, adding 100 μL isopropanol (containing 0.4 mM HCl, 0.1% NP-40), and shaking the bed at room temperature for 30 min; and • D) Determining the absorbance value by selecting 570 nm on a TECAN enzyme-linked immunoassay detector.
(§5) The % Cell Viability was calculated using the following formula:
(§6) [formula] • Lum_HC: 0.1% DMSO control cell reading • Lum_Sample: cell readings with compound added • Lum_LC: Blank medium reading

[3] = system: ovarian cancer cell A2780; assay: Cellular antiproliferative assay (MTT, 5 days), A2780; type: cell-based, human; conditions: Homo sapiens, 120 h, A2780 cells, 5 days incubation
Protocol: as §1, §2, §3, §4, §5, §6

[4] = system: human mantle cell lymphoma cell JEKO-1; assay: Cellular antiproliferative assay (MTT, 5 days), JEKO-1; type: cell-based; conditions: Homo sapiens, 120 h, JEKO-1 cells, 5 days incubation
Protocol: as §1, §2, §3, §4, §5, §6

[5] = target: CDK4/CycD1 (Homo sapiens, UniProt P11802); assay: Kinase activity test (mobility shift assay, EZ Reader), CDK4
Sequence of CDK4/CycD1 (P11802 whole entry, species assumed): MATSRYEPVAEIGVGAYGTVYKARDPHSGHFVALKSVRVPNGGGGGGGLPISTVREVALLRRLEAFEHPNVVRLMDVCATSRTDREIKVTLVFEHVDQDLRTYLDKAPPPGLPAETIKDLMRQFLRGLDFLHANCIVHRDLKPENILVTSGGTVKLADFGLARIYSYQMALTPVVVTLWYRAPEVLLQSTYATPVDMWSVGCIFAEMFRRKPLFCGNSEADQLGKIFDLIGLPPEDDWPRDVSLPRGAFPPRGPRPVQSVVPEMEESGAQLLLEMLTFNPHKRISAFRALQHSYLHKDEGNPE
Sequence of CDK4/CycD1 (P24385 whole entry partner, species assumed): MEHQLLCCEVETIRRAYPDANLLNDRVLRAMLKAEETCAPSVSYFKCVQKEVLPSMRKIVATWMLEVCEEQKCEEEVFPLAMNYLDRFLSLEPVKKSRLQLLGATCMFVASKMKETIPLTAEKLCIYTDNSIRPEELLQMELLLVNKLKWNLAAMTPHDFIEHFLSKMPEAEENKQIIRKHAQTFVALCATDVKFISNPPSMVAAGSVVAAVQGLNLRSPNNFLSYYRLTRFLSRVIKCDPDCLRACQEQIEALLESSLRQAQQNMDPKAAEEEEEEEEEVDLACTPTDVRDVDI
Protocol: The tested compounds were subjected to CDK4 and CDK6 kinase IC50 values test.
• (1) Preparing a 1.3× enzyme solution containing enzyme, substrate and cofactor as shown below. • (2) Adding 15 μL of 1.3× enzyme solution to each well and incubating for 30 min at room temperature. • (3) Starting the reaction by adding 5 μL of 4×ATP solution, with each test well containing the listed components and a final volume of 20 μL. • (4) Incubating for 150 minutes and then stopping the reaction by adding 75 μL of buffer (containing 0.5 M EDTA). • (5) Reading the data from each test well by EZ for analysis.
Percentage inhibition was calculated using the read conversion ratio (CR) according to the formula below:
The wells treated with DMSO were used as positive control (positive control) and the wells without enzyme were used as negative control (negative control).

[6] = Preclinical rat pharmacokinetic test; type: in vivo; conditions: male SD rats, gavage (p.o.), 10 mg/kg, plasma; for AUC(0-t) / Cmax / Tmax: Sprague-Dawley (SD), rat, po
Protocol: Healthy adult SD rats, male, 6-8 weeks old, weighing 200-300 g. EDTA-Na2 anticoagulant. Analytical balance, animal weight scale, magnetic stirrer, freezing centrifuge, single-channel manual pipette. About 10 mg of the sample to be tested was precisely weighed, the converted 5% DMSO was added to dissolve, and then 10 percent solutol HS-15 and 85% saline were added, ultrasonic treatment was performed, vortex mixed, to obtain the solution having a concentration of 1 mg/mL; freshly prepared before use. Animals were kept in rat cages and fasted (not less than 10 h) the day before the test, but not water fasted; on the day of the test, they were weighed and labeled at the tail. Blank blood was collected before drug administration. Blood was collected from the tail vein. • Route of administration: gavage (p.o.). • Dose: 10 mg/kg • Administration volume: 10 mL/kg • Operation procedure: Hold the rat with the left hand with anti-biting gloves, made it stand upright, extent the 16-gauge gavage needle from the throat in the mouth, and then injected the drug into the stomach when there was no obvious resistance. Before and 0.5 […] and 24 h after the administration of the drug, 0.1 ml of whole blood from the test animal was collected in EDTA-Na2 anticoagulant tubes, which was mixed upside down for 3-4 times and then centrifuged at 10,000 g for 5 min at 4° C. to isolate the plasma, which was stored at -80° C. for testing. Blood was collected from the tail vein. […] Pipetted 25 μL of rat blank plasma in a centrifuge tube respectively, added 25 μL of prepared standard series solution (prepared in methanol), then added 200 μL of internal standard solution (prepared in methanol), vortexed and mixed for 2 min, centrifuged at 4° C., 10,000 g for 10 min. Unknown plasma samples treatment: 25 μL of rat plasma containing drug was aspirated, 25 μL of methanol and 200 μL of internal standard solution were added sequentially, vortexed and mixed for 2 min, and then centrifuged at 4° C. and 10,000 g for 10 min. The supernatant was extracted for LC/MS/MS detection. Shimadzu liquid phase and Triple Quad TM 6500+AB mass spectrometry were utilized to establish a quantitative assay for the compounds to be tested. The pro-drug concentration in plasma was determined. The blood drug concentration-time curves were plotted, and the main pharmacokinetic parameters were calculated using the non-compartment model in winnonlin Phoenix software, and the detailed data were shown in Table 3.

Sequence of CDK6/CyclinD3 (Q00534 whole entry, species assumed): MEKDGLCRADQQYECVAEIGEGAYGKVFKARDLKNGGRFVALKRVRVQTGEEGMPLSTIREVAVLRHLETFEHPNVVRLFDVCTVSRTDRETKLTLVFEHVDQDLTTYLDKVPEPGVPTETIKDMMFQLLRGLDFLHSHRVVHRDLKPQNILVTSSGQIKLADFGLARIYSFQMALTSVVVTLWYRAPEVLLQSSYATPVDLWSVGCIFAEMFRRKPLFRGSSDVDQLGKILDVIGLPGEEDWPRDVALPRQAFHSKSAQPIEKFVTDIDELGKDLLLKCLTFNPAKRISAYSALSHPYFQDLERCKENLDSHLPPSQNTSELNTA
Sequence of CDK6/CyclinD3 (P30281 whole entry partner, species assumed): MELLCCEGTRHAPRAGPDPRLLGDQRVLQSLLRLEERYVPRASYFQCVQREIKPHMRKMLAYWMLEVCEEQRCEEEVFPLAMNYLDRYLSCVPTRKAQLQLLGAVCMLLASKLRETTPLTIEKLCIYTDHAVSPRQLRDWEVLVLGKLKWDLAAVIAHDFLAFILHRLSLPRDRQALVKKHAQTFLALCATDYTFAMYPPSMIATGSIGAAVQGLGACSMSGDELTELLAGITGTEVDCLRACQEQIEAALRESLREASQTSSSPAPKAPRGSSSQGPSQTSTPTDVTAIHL

SMILES: CC(C)N1CCOc2c(F)cc(-c3nc(N[C@@H]4CCOC[C@H]4O)ncc3Cl)cc21 [TA-1]
- IC50 [1]: 23.6 nM
- IC50 [2]: ≤ 500 nM
- IC50 [3]: ≤ 500 nM
- IC50 [4]: ≤ 500 nM
- IC50 [5]: 0.849 nM

SMILES: CC(C)N1C(=O)COc2c(F)cc(-c3nc(N[C@@H]4CCOC[C@H]4O)ncc3Cl)cc21 [TA-2, 6-(5-chloro-2-(((3S,4R)-3-hydroxytetrahydro-2H-pyran-4-yl)amino)pyrimidin-4-yl)-8-fluoro-4-isopropyl-2H-benzo[b][1,4]oxazin-3(4H)-one]
- IC50 [1]: 109 nM
- IC50 [2]: 500 to 2000 nM
- IC50 [3]: ≤ 500 nM
- IC50 [4]: ≤ 500 nM
- IC50 [5]: 42.2 nM

SMILES: CC(C)N1CCOc2c(F)cc(-c3ccnc(N[C@@H]4CCOC[C@H]4O)n3)cc21 [TA-4, (3S,4R)-4-((4-(8-fluoro-4-isopropyl-3,4-dihydro-2H-benzo[b][1,4]oxazin-6-yl)pyrimidin-2-yl)amino)tetrahydro-2H-pyran-3-ol]
- IC50 [1]: 116 nM
- IC50 [2]: ≤ 500 nM
- IC50 [3]: ≤ 500 nM
- IC50 [4]: ≤ 500 nM
- IC50 [5]: 10.4 nM

SMILES: CC(C)N1CCOc2c(F)cc(-c3nc(N[C@@H]4CCOC[C@H]4O)ncc3F)cc21 [TA-5, (3S,4R)-4-((5-fluoro-4-(8-fluoro-4-isopropyl-3,4-dihydro-2H-benzo[b][1,4]oxazin-6-yl)pyrimidin-2-yl)amino)tetrahydro-2H-pyran-3-ol]
- IC50 [1]: 30.2 nM
- IC50 [2]: ≤ 500 nM
- IC50 [3]: ≤ 500 nM
- IC50 [4]: ≤ 500 nM
- IC50 [5]: 3.11 nM

SMILES: CC(C)N1CCOc2c(F)cc(-c3nc(NC4CCN(S(C)(=O)=O)CC4)ncc3F)cc21 [TA-6, 5-fluoro-4-(8-fluoro-4-isopropyl-3,4-dihydro-2H-benzo[b][1,4]oxazin-6-yl)-N-(1-(methylsulfonyl)piperidin-4-yl)pyrimidin-2-amine]
- IC50 [1]: 13.7 nM
- IC50 [2]: ≤ 500 nM
- IC50 [3]: ≤ 500 nM
- IC50 [4]: ≤ 500 nM
- IC50 [5]: 4.29 nM

SMILES: CC(C)N1CCOc2c(F)cc(-c3nc(NC4CCCC(C(=O)N(C)C)C4)ncc3F)cc21 (stereo not shown) [TA-7, 3-((5-fluoro-4-(8-fluoro-4-isopropyl-3,4-dihydro-2H-benzo[b][1,4]oxazin-6-yl)pyrimidin-2-yl)amino)-N,N-dimethylcyclohexane-1-carboxamide]
- IC50 [1]: > 500 nM
- IC50 [2]: ≤ 500 nM
- IC50 [3]: ≤ 500 nM
- IC50 [4]: ≤ 500 nM
- IC50 [5]: 17.7 nM

SMILES: CC(C)N1CCOc2c(F)cc(-c3nc(NC4CCN(S(C)(=O)=O)CC4)ncc3Cl)cc21 [TA-11, 5-chloro-4-(8-fluoro-4-isopropyl-3,4-dihydro-2H-benzo[b][1,4]oxazin-6-yl)-N-(1-(methylsulfonyl)piperidin-4-yl)pyrimidin-2-amine]
- IC50 [1]: 24.7 nM
- IC50 [2]: ≤ 500 nM
- IC50 [3]: ≤ 500 nM
- IC50 [4]: ≤ 500 nM
- IC50 [5]: 7.19 nM

SMILES: CC(C)N1CCOc2c(F)cc(-c3nc(NC4CCCC(C(=O)N(C)C)C4)ncc3Cl)cc21 (stereo not shown) [TA-14, 3-((5-chloro-4-(8-fluoro-4-isopropyl-3,4-dihydro-2H-benzo[b][1,4]oxazin-6-yl)pyrimidin-2-yl)amino)-N,N-dimethylcyclohexane-1-carboxamide]
- IC50 [1]: > 500 nM
- IC50 [5]: 69.4 nM

SMILES: CC(=O)N1CCC[C@@H](Nc2ncc(Cl)c(-c3cc(F)c4c(c3)N(C(C)C)CCO4)n2)C1 [TA-16, (R)-1-(3-((5-chloro-4-(8-fluoro-4-isopropyl-3,4-dihydro-2H-benzo[b][1,4]oxazin-6-yl)pyrimidin-2-yl)amino)piperidin-1-yl)ethan-1-one]
- IC50 [1]: 99.1 nM
- IC50 [5]: 15.3 nM

SMILES: CC(C)N1CCOc2c(F)cc(-c3nc(N[C@@H]4CCC[C@H](NS(C)(=O)=O)C4)ncc3Cl)cc21 [TA-17]
- IC50 [1]: 83.4 nM
- IC50 [5]: 22.7 nM

SMILES: CC(C)C(=O)N(c1cc(F)cc(-c2nc(N[C@@H]3CCOC[C@H]3O)ncc2Cl)c1)C(C)C [TA-20]
- IC50 [1]: 319 nM
- IC50 [5]: 108 nM

SMILES: CC(C)c1c(C(C)(C)O)nc2ccc(-c3nc(N[C@@H]4CCOC[C@H]4O)ncc3Cl)cn12 [TA-25, (3S,4R)-4-((5-chloro-4-(2-(2-hydroxypropan-2-yl)-3-isopropylimidazo[1,2-a]pyridin-6-yl)pyrimidin-2-yl)amino)tetrahydro-2H-pyran-3-ol]
- AUC(0-t) [6]: 4470 ng·h/mL
- Cmax [6]: 611 ng/mL
- Tmax [6]: 3.33 h
- HL— [6]: 1.69 h

SMILES: CC(C)c1c(C(C)(C)O)nc2c(F)cc(-c3nc(N[C@@H]4CCOC[C@H]4O)ncc3Cl)cn12 [TA-27, (3S,4R)-4-((5-chloro-4-(8-fluoro-2-(2-hydroxypropan-2-yl)-3-isopropylimidazo[1,2-a]pyridin-6-yl)pyrimidin-2-yl)amino)tetrahydro-2H-pyran-3-ol]
- IC50 [1]: 203 nM
- IC50 [5]: 21.8 nM

SMILES: COc1ncc(-c2nc(N[C@@H]3CCOC[C@H]3O)ncc2F)c2c1CCC2 [TA-34, (3S,4R)-4-((5-fluoro-4-(1-methoxy-6,7-dihydro-5H-cyclopenta[c]pyridin-4-yl)pyrimidin-2-yl)amino)tetrahydro-2H-pyran-3-ol]
- IC50 [1]: 2580 nM
- IC50 [5]: 729 nM

SMILES: CC1CC(=O)N(C)c2nc3c(F)cc(-c4nc(N[C@@H]5CCOC[C@H]5O)ncc4Cl)cc3n21 (stereo partly drawn) [TA-53, 7-(5-chloro-2-(((3S,4R)-3-hydroxytetrahydro-2H-pyran-4-yl)amino)pyrimidin-4-yl)-9-fluoro-1,4-dimethyl-3,4-dihydrobenzo[4,5]imidazo[1,2-a]pyrimidin-2(1H)-one]
- AUC(0-t) [6]: 3530 ng·h/mL
- Cmax [6]: 920 ng/mL
- Tmax [6]: 1 h
- HL— [6]: 1.77 h

SMILES: CC(C)n1c(N2CCOC2=O)nc2c(F)cc(-c3nc(N[C@@H]4CCOC[C@H]4O)ncc3Cl)cc21 [TB-24]
- HL— [6]: 3.14 h

SMILES: CC(C)n1c(N2CCOC2=O)nc2c(F)cc(-c3nc(N[C@@H]4CCOC[C@H]4O)ncc3C(F)(F)F)cc21 [TB-27]
- HL— [6]: 3.69 h

SMILES: CN1CCCn2c1nc1c(F)cc(-c3nc(NC4CCN(S(C)(=O)=O)CC4)ncc3Cl)cc12 [TB-43, 5-chloro-4-(9-fluoro-1-methyl-1,2,3,4-tetrahydrobenzo[4,5]imidazo[1,2-a]pyrimidin-7-yl)-N-(1-(methylsulfonyl)piperidin-4-yl)pyrimidin-2-amine]
- IC50 [1]: 200 nM
- IC50 [2]: ≤ 500 nM
- IC50 [3]: ≤ 500 nM
- IC50 [4]: ≤ 500 nM
- IC50 [5]: 18.6 nM

SMILES: C[C@H]1CCN(C)c2nc3c(F)cc(-c4nc(Nc5ccncc5)ncc4Cl)cc3n21 [TB-137, (S)-5-chloro-4-(9-fluoro-1,4-dimethyl-1,2,3,4-tetrahydrobenzo[4,5]imidazo[1,2-a]pyrimidin-7-yl)-N-(pyridin-4-yl)pyrimidin-2-amine]
- IC50 [1]: 95.2 nM
- IC50 [2]: ≤ 500 nM
- IC50 [3]: ≤ 500 nM
- IC50 [4]: ≤ 500 nM
- IC50 [5]: 12.7 nM
